Source: patent publication EP2600854B1, “PHENETHYL, PHENETHYLENE, PHENETHYNE AND INDANONE DERIVATES IN COSMETIC FORMULATIONS, ESPECIALLY FOR USE IN SKIN AGEING PROCESSES” (Merck Patent GmbH, priority 2010, dated 2012)
≈ marks a conversion by molar mass, not a printed value. Like-named read-outs stand apart in the source and are kept apart here.

What was measured:
[1] = Solubility comparison in the cosmetic oil isopropyl myristate; format: physicochemical; conditions: for solubility: isopropyl myristate, organic solvent or mixture, Isopropylmyristat, read-out: Löslichkeiten
Experimental: Im Parallelversuch werden 20mg der Substanz 4a mit zunächst 800µL Isopropylmyristat versetzt. […] Daraus errechnen sich Löslichkeiten für 1 a von mindestens 2,5% bzw. für 4a von maximal 1,0% bezogen auf das eingesetzte Volumen Öl. Im anschließenden Verifizierungsexperiment bei Raumtemperatur von 23°C ergeben sich Löslichkeiten von 2,4% für 1 a sowie 0,4% für 4a.

[2] = In-situ generation of 4a from 1a under sun-simulated radiation (Suntester), HPLC analysis; format: physicochemical; conditions: 5mg 1a in 10 mL Ethanol
Experimental: 5mg der Substanz 1 a werden in 10 mL Ethanol gelöst. Mit der Lösung wird ein NMR-Röhrchen vollständig befüllt, verschlossen und für 4 Stunden im Suntester sonnensimulierter Strahlung ausgesetzt (Atlas CPS+ Suntester, 765 Wm^-2). Nach Bestrahlung wird die Lösung per HPLC untersucht. Im Dunkelexperiment ist die Substanz 4a abwesend, während im Belichtungexperiment Substanz 4a zu 2% bei der Detektionswellenlänge von 272nm nachgewiesen wird.

[3] = 30°C, bezogen auf das eingesetzte Volumen Öl, calculated from 20mg in 800µL (1a) or 800µL + 1200µL (4a)
[4] = Verifizierungsexperiment bei Raumtemperatur von 23°C

| Dissolution of 20mg in 800µL Isopropylmyristat ([1]; 20mg, 30°C) | solubility [1, 3] | solubility [1, 4] | Substanz 4a nachgewiesen (HPLC) im Belichtungexperiment ([2]; 4 Stunden sonnensimulierte Strahlung (Atlas CPS+ Suntester, 765 Wm^-2), Detektionswellenlänge 272nm) | Substanz 4a (HPLC) im Dunkelexperiment ([2]; no irradiation) | SMILES | Dissolution of 20mg after addition of further 1200µL Isopropylmyristat ([1]; 20mg, 800µL + 1200µL Isopropylmyristat) |
| --- | --- | --- | --- | --- | --- | --- |
| vollständig gelöst | ≥ 25 mg/mL | 24 mg/mL (≈ 81.5 mM) | 2% | abwesend | COc1ccc(C(=O)/C=C/c2ccc(C(C)(C)C)cc2)cc1 [1a, E-3-(4-tert.-Butyl-phenyl)-1-(4-methoxy-phenyl)-propenon] |  |
| keine vollständige Löslichkeit | ≤ 10 mg/mL | 4 mg/mL (≈ 13.6 mM) |  |  | COc1ccc2c(c1)C(c1ccc(C(C)(C)C)cc1)CC2=O (stereo not drawn) [4a, 3-(4-tert.-Butyl-phenyl)-5-methoxy-indan-1-on] | deutlicher Bodensatz in der trüben Dispersion |
